Reference: the NIST ThermoML archive (doi:10.1016/j.fluid.2004.10.028)

Assay: wn = mass fraction of the nth substance listed
Settings: Liquid, Capillary tube (Ostwald / Ubbelohde) method

O=S(=O)([O-])[O-].[Na+].[Na+] [sodium sulfate] + O
viscosity [mPa·s]
Settings	10000 kPa	20000 kPa	30000 kPa	40000 kPa
421.5 K, w1 = 0.03	0.2013	0.2035	0.2068	0.209
422.51 K, w1 = 0.23	0.4132	0.4195	0.4254	0.43
422.61 K, w1 = 0.015	0.1927	0.1968	0.1999	0.2022
423.8 K, w1 = 0.26	0.4623	0.4688	0.4726	0.4803
424.67 K, w1 = 0.05	0.2079	0.2096	0.213	0.2164
425.6 K, w1 = 0.07	0.2211	0.2267	0.2293	0.23
444.81 K, w1 = 0.2	0.3083	0.3129	0.3175	0.3219
446.24 K, w1 = 0.05	0.1796	0.182	0.1853	0.1879
447 K, w1 = 0.07	0.1913	0.1946	0.1975	0.1998
447.2 K, w1 = 0.1	0.2125	0.2163	0.2189	0.2219
447.6 K, w1 = 0.015	0.1633	0.1684	0.17	0.1724
447.6 K, w1 = 0.15	0.2493	0.2551	0.2575	0.2603
447.6 K, w1 = 0.26	0.3901	0.3981	0.401	0.4047
447.81 K, w1 = 0.03	0.1686	0.1705	0.1734	0.1761
447.9 K, w1 = 0.23	0.3449	0.3498	0.3568	0.3609
470.16 K, w1 = 0.05	0.1564	0.1598	0.1629	0.1647
470.7 K, w1 = 0.015	0.1432	0.1468	0.1499	0.1508
471.31 K, w1 = 0.1	0.1847	0.1878	0.1904	0.1941
472 K, w1 = 0.23	0.2966	0.3024	0.3086	0.312
472.2 K, w1 = 0.07	0.1656	0.1689	0.1706	0.1739
472.3 K, w1 = 0.2	0.2608	0.2661	0.2699	0.2739
473.7 K, w1 = 0.03	0.1456	0.1486	0.1514	0.153
473.9 K, w1 = 0.26	0.3308	0.3354	0.3413	0.3476
473.93 K, w1 = 0.15	0.2133	0.2169	0.2199	0.224
496.34 K, w1 = 0.23	0.262	0.2695	0.2734	0.2776
497.1 K, w1 = 0.03	0.1296	0.1312	0.136	0.1375
497.19 K, w1 = 0.2	0.2292	0.2335	0.2387	0.2425
497.8 K, w1 = 0.15	0.1892	0.1945	0.1978	0.2001
498.22 K, w1 = 0.1	0.1618	0.1641	0.1678	0.1711
498.3 K, w1 = 0.015	0.1248	0.1286	0.1307	0.1325
498.7 K, w1 = 0.07	0.1451	0.1489	0.1506	0.1533
498.7 K, w1 = 0.26	0.2923	0.2976	0.3018	0.309
499.3 K, w1 = 0.05	0.1352	0.1363	0.1392	0.143
520.5 K, w1 = 0.26	0.2636	0.2691	0.2746	0.2813
520.51 K, w1 = 0.23	0.2338	0.2387	0.2415	0.249
520.64 K, w1 = 0.015	0.1128	0.1165	0.1191	0.1209
522.4 K, w1 = 0.15	0.1686	0.1709	0.1748	0.179
523.1 K, w1 = 0.07	0.1298	0.1324	0.1367	0.1385
523.3 K, w1 = 0.03	0.115	0.1169	0.1196	0.1219
523.8 K, w1 = 0.2	0.2021	0.2076	0.2105	0.216
524.7 K, w1 = 0.05	0.1204	0.1231	0.1267	0.1286
525.4 K, w1 = 0.1	0.143	0.1469	0.1493	0.1524
545.3 K, w1 = 0.05	0.1097	0.112	0.1143	0.1177
545.4 K, w1 = 0.2	0.184	0.1879	0.1923	0.1989
546.2 K, w1 = 0.07	0.1171	0.1197	0.1224	0.1267
547.7 K, w1 = 0.15	0.151	0.1548	0.1589	0.1634
547.9 K, w1 = 0.015	0.1	0.1025	0.1068	0.1089
547.9 K, w1 = 0.1	0.1296	0.1329	0.136	0.1399
548.7 K, w1 = 0.23	0.2061	0.2106	0.2186	0.223
549.9 K, w1 = 0.03	0.1023	0.1065	0.1086	0.1109
570.5 K, w1 = 0.15	0.1354	0.1399	0.1463	0.1496
572.62 K, w1 = 0.03	0.092	0.0967	0.0992	0.102
572.96 K, w1 = 0.05	0.0965	0.0998	0.1029	0.1066
573.2 K, w1 = 0.1	0.1143	0.1178	0.1204	0.1266
573.5 K, w1 = 0.07	0.1031	0.1068	0.1092	0.1143
